We go through 24 compounds from patent US12441691B2 (Cytokinetics, Inc., priority 2020, dated 2025).

The structures appear in SMILES notation.

The test deals with rabbit skeletal myofibrils (fast skeletal myofibrils). Briefly: Activation of fast skeletal myofibrils (PUMA assay, AC1.4). The following applies: calcium at pCa25, AC1.4 = concentration at which the compound increased the enzymatic activity. The test is classed as biochemical. In a few lines:
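In 12 mM PIPES pH 6.8 with 2 mM MgCl2 and 1 mM DTT, Triton-washed rabbit skeletal myofibrils were run at the pCa25 calcium level. Myosin-made ADP was recycled through a PK/LDH coupled system; NADH loss read at 340 nm.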
Take `CC[C@H](C)[C@H]1C(=O)Nc2ccccc2CN1C#N` [Compound 145, (S)-3-((S)-sec-butyl)-2-oxo-1,2,3,5-tetrahydro-4H-benzo[e][1,4]diazepine-4-carbonitrile]: the AC1.4 amounted to 0.50 µM.

For the compound `CC[C@H](C)[C@H]1C(=O)Nc2ccccc2CN1C(=N)NO` [Compound 146, (S)-3-((S)-sec-butyl)-N-hydroxy-2-oxo-1,2,3,5-tetrahydro-4H-benzo[e][1,4]diazepine-4-carboximidamide], the AC1.4 came out at 0.30 µM.

Take `CC[C@H](C)[C@H]1C(=O)Nc2ccccc2CN1C(=O)C(C)(C)C(N)=O` [Compound 147, 3-((S)-3-((S)-sec-butyl)-2-oxo-1,2,3,5-tetrahydro-4H-benzo[e][1,4]diazepin-4-yl)-2,2-dimethyl-3-oxopropanamide]: the AC1.4 worked out at 2.57 µM.

Take `CC[C@H](C)[C@H]1C(=O)Nc2ccccc2CN1C(=O)C1CC(=O)N(C)C1` (stereo partly drawn) [Compound 148]: the AC1.4 came to 0.98 µM.

In the case of `CC[C@H](C)[C@H]1C(=O)Nc2ccccc2CN1C(=O)CC(C)(C)O` [Compound 149], the AC1.4 is 2.08 µM.

As for `CC[C@H](C)[C@H]1C(=O)Nc2ccccc2CN1C(=O)c1cc2ncccc2[nH]1` [Compound 150, (S)-3-((S)-sec-butyl)-4-(1H-pyrrolo[3,2-b]pyridine-2-carbonyl)-1,3,4,5-tetrahydro-2H-benzo[e][1,4]diazepin-2-one], the AC1.4 came to 0.03 µM.

Turning to `CC[C@H](C)[C@H]1C(=O)Nc2ccccc2CN1C(=O)c1cc2ccncc2[nH]1` [Compound 151, (S)-3-((S)-sec-butyl)-4-(1H-pyrrolo[2,3-c]pyridine-2-carbonyl)-1,3,4,5-tetrahydro-2H-benzo[e][1,4]diazepin-2-one], the AC1.4 was determined as 0.06 µM.

For `CC[C@H](C)[C@H]1C(=O)Nc2ccccc2CN1C(=O)c1ncn[nH]1` [Compound 152, (S)-3-((S)-sec-butyl)-4-(1H-1,2,4-triazole-5-carbonyl)-1,3,4,5-tetrahydro-2H-benzo[e][1,4]diazepin-2-one], the AC1.4 stood at 0.07 µM.

`CC[C@H](C)[C@H]1C(=O)Nc2ccccc2CN1C(=O)c1c[nH]nn1` [Compound 153, (S)-3-((S)-sec-butyl)-4-(1H-1,2,3-triazole-4-carbonyl)-1,3,4,5-tetrahydro-2H-benzo[e][1,4]diazepin-2-one]: the AC1.4 was determined as 0.09 µM.

`CC[C@H](C)[C@H]1C(=O)Nc2ccccc2CN1C(=O)c1cccc(=O)n1C` [Compound 154, (S)-3-((S)-sec-butyl)-4-(1-methyl-6-oxo-1,6-dihydropyridine-2-carbonyl)-1,3,4,5-tetrahydro-2H-benzo[e][1,4]diazepin-2-one]: the AC1.4 was 0.65 µM.

As for `CC[C@H](C)[C@H]1C(=O)Nc2ccccc2CN1C(=O)c1ccc(=O)[nH]c1` [Compound 155, (S)-3-((S)-sec-butyl)-4-(6-oxo-1,6-dihydropyridine-3-carbonyl)-1,3,4,5-tetrahydro-2H-benzo[e][1,4]diazepin-2-one], the AC1.4 was 0.54 µM.

In the case of `CC[C@H](C)[C@H]1C(=O)Nc2ccccc2CN1C(=O)c1ccc(=O)n(C)c1` [Compound 156, (S)-3-((S)-sec-butyl)-4-(1-methyl-6-oxo-1,6-dihydropyridine-3-carbonyl)-1,3,4,5-tetrahydro-2H-benzo[e][1,4]diazepin-2-one], the AC1.4 was found to be 0.90 µM.

For `CC[C@H](C)[C@H]1C(=O)Nc2ccccc2CN1C(=O)c1cnn(C)n1` [Compound 157, (S)-3-((S)-sec-butyl)-4-(2-methyl-2H-1,2,3-triazole-4-carbonyl)-1,3,4,5-tetrahydro-2H-benzo[e][1,4]diazepin-2-one], the AC1.4 was 0.11 µM.

For the compound `CC[C@H](C)[C@H]1C(=O)Nc2ccccc2CN1C(=O)c1ccc(C(N)=O)nc1` [Compound 158, 5-((S)-3-((S)-sec-butyl)-2-oxo-2,3,4,5-tetrahydro-1H-benzo[e][1,4]diazepine-4-carbonyl)picolinamide], the AC1.4 was 0.44 µM.

On to `CC[C@H](C)[C@H]1C(=O)Nc2ccccc2CN1C(=O)c1cnnn1C` [Compound 159, (S)-3-((S)-sec-butyl)-4-(1-methyl-1H-1,2,3-triazole-5-carbonyl)-1,3,4,5-tetrahydro-2H-benzo[e][1,4]diazepin-2-one], for which the AC1.4 was found to be 0.59 µM.

On to `CC[C@H](C)[C@H]1C(=O)Nc2ccccc2CN1C(=O)c1ncc[nH]1` [Compound 160, (S)-3-((S)-sec-butyl)-4-(1H-imidazole-2-carbonyl)-1,3,4,5-tetrahydro-2H-benzo[e][1,4]diazepin-2-one], for which the AC1.4 was 0.16 µM.

With `CC[C@H](C)[C@H]1C(=O)Nc2ccccc2CN1C(=O)C1CCC(=O)N1` (stereo partly drawn) [Compound 161, (3S)-3-((S)-sec-butyl)-4-(5-oxopyrrolidine-2-carbonyl)-1,3,4,5-tetrahydro-2H-benzo[e][1,4]diazepin-2-one], the AC1.4 came to 2.25 µM.

For `CC[C@H](C)[C@H]1C(=O)Nc2ccccc2CN1C(=O)c1cncc(C(N)=O)c1` [Compound 162, 5-((S)-3-((S)-sec-butyl)-2-oxo-2,3,4,5-tetrahydro-1H-benzo[e][1,4]diazepine-4-carbonyl)nicotinamide], the AC1.4 stood at 0.11 µM.

As for `CCOC(=O)c1ccc(C(=O)N2Cc3ccccc3NC(=O)[C@@H]2[C@@H](C)CC)[nH]1` [Compound 163, ethyl 5-((S)-3-((S)-sec-butyl)-2-oxo-2,3,4,5-tetrahydro-1H-benzo[e][1,4]diazepine-4-carbonyl)-1H-pyrrole-2-carboxylate], the AC1.4 was determined as 0.05 µM.

Consider `CC[C@H](C)[C@H]1C(=O)Nc2ccccc2CN1C(=O)c1cnn(C[C@@H](C)O)c1` [Compound 164, (S)-3-((S)-sec-butyl)-4-(1-((R)-2-hydroxypropyl)-1H-pyrazole-4-carbonyl)-1,3,4,5-tetrahydro-2H-benzo[e][1,4]diazepin-2-one], for which the AC1.4 is 0.10 µM.

On to `CC[C@H](C)[C@H]1C(=O)Nc2ccccc2CN1C(=O)c1ccc2c(c1)NC(=O)C2` [Compound 165, (S)-3-((S)-sec-butyl)-4-(2-oxoindoline-6-carbonyl)-1,3,4,5-tetrahydro-2H-benzo[e][1,4]diazepin-2-one], for which the AC1.4 was 0.14 µM.

In the case of `CC[C@H](C)[C@H]1C(=O)Nc2ccccc2CN1C(=O)c1ccc(C(=O)O)[nH]1` [Compound 166, 5-((S)-3-((S)-sec-butyl)-2-oxo-2,3,4,5-tetrahydro-1H-benzo[e][1,4]diazepine-4-carbonyl)-1H-pyrrole-2-carboxylic acid], the AC1.4 was determined as 0.45 µM.

On to `CC[C@H](C)[C@H]1C(=O)Nc2ccccc2CN1C(=O)c1ccc2c(c1)CC(=O)N2` [Compound 167, (S)-3-((S)-sec-butyl)-4-(2-oxoindoline-5-carbonyl)-1,3,4,5-tetrahydro-2H-benzo[e][1,4]diazepin-2-one], for which the AC1.4 is 0.05 µM.

Consider `CC[C@H](C)[C@H]1C(=O)Nc2ccccc2CN1C(=O)c1cc2nc(C(N)=O)ccc2[nH]1` [Compound 168, 2-((S)-3-((S)-sec-butyl)-2-oxo-2,3,4,5-tetrahydro-1H-benzo[e][1,4]diazepine-4-carbonyl)-1H-pyrrolo[3,2-b]pyridine-5-carboxamide], for which the AC1.4 worked out at 0.04 µM.
